Source: patent publication US10676465B2, “GLP-1 receptor agonists and uses thereof” (Pfizer Inc., priority 2018, dated 2020)
Like-named read-outs stand apart in the source and are kept apart here.

Assays:
[1] = biological target: human GLP-1R (Homo sapiens, UniProt P43220, G168S); test: CHO GLP-1R Clone H6 - Assay 1 (HTRF cAMP agonist assay); type: cell-based; details: for EC50: CHO GLP-1R Clone H6, cAMP HTRF, geometric mean; for Emax: CHO GLP-1R Clone H6, arithmetic mean, relative to saturating GLP-1 (1 μM)
Sequence of human GLP-1R (Homo sapiens, UniProt P43220, G168S) (P43220 24-463 G168S limits assumed): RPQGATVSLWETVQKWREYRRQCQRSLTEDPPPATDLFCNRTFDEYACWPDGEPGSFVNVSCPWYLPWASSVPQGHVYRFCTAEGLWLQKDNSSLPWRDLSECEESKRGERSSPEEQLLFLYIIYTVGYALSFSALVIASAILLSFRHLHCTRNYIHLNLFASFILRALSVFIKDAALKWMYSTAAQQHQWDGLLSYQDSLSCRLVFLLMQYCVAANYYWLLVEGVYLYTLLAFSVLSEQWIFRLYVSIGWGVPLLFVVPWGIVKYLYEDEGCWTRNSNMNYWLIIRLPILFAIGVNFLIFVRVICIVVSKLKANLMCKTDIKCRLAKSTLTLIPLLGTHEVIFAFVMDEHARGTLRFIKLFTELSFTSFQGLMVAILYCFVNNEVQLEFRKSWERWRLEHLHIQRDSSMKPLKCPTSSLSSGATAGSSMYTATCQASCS
Procedure: GLP-1R-mediated agonist activity was determined with a cell-based functional assay utilizing an HTRF (Homogeneous Time-Resolved Fluorescence) cAMP detection kit (cAMP HI Range Assay Kit; CisBio cat #62AM6PEJ) that measures cAMP levels in the cell. The method is a competitive immunoassay between native cAMP produced by the cells and exogenous cAMP labeled with the dye d2. The tracer binding is visualized by a mAb anti-cAMP labeled with Cryptate. The specific signal (i.e. energy transfer) is inversely proportional to the concentration of cAMP in either standard or experimental sample.
The human GLP-1R coding sequence (NCBI Reference Sequence NP_002053.3, including naturally-occurring variant Gly168Ser) was subcloned into pcDNA3 (Invitrogen) and a cell line stably expressing the receptor was isolated (designated Clone H6).
Cells were removed from cryopreservation, re-suspended in 40 mL of Dulbecco's Phosphate Buffered Saline (DPBS—Lonza Cat #17-512Q) and centrifuged at 800×g for 5 minutes at 22° C. The cell pellet was then re-suspended in 10 mL of growth medium [DMEM/F12 1:1 Mixture with HEPES, L-Gln, 500 mL (DMEM/F12 Lonza Cat #12-719F), 10% heat inactivated fetal bovine serum (Gibco Cat #16140-071), 5 mL of 100× Pen-Strep (Gibco Cat #15140-122), 5 mL of 100×L-Glutamine (Gibco Cat #25030-081) and 500 μg/mL Geneticin (G418) (Invitrogen #10131035)]. A 1 mL sample of the cell suspension in growth media was counted on a Becton Dickinson ViCell to determine cell viability and cell count per mL. The remaining cell suspension was then adjusted with growth media to deliver 2000 viable cells per well using a Matrix Combi Multidrop reagent dispenser, and the cells were dispensed into a white 384 well tissue culture treated assay plate (Corning 3570). The assay plate was then incubated for 48 hours at 37° C. in a humidified environment in 5% carbon dioxide.
Varying concentrations of each compound to be tested (in DMSO) were diluted in assay buffer (HBSS with Calcium/Magnesium (Lonza/BioWhittaker cat #10-527F)/0.1% BSA (Sigma Aldrich cat # A7409-1L)/20 mM HEPES (Lonza/BioWhittaker cat #17-737E) containing 100 μM 3-isobutyl-1-methylxanthin (IBMX; Sigma cat #15879). The final DMSO concentration is 1%.
After 48 hours, the growth media was removed from the assay plate wells, and the cells were treated with 20 μL of the serially diluted compound in assay buffer for 30 minutes at 37° C. in a humidified environment in 5% carbon dioxide. Following the 30 minute incubation, 10 μL of labeled d2 cAMP and 10 μL of anti-cAMP antibody (both diluted 1:20 in cell lysis buffer; as described in the manufacturer's assay protocol) were added to each well of the assay plate. The plates were then incubated at room temperature and after 60 minutes, changes in the HTRF signal were read with an Envision 2104 multi-label plate reader using excitation of 330 nm and emissions of 615 and 665 nm. Raw data were converted to nM cAMP by interpolation from a cAMP standard curve (as described in the manufacturer's assay protocol) and the percent effect was determined relative to a saturating concentration of the full agonist GLP-17-36 (1 μM) included on each plate. EC50 determinations were made from agonist dose-response curves analyzed with a curve fitting program using a 4-parameter logistic dose response equation.

[2] = biological target: human GLP-1R (Homo sapiens (Human), UniProt P43220, L260F); test: CHO GLP-1R Clone C6 - Assay 2 (HTRF cAMP agonist assay, low receptor density); details: for Emax: read-out: Assay 2 Emax (%), CHO GLP-1R Clone C6 (low receptor density)
Sequence of human GLP-1R (Homo sapiens (Human), UniProt P43220, L260F) (P43220 24-463 L260F): as the sequence (P43220 24-463 G168S limits assumed) above, with S145G, L237F counted along it

[3] = read-out: Assay 2 EC50, CHO GLP-1R Clone C6 (low receptor density), cAMP HTRF, geometric mean
[4] = arithmetic mean, relative to saturating GLP-1 (1 μM)
[5] = EC50 in Assay 2, CHO GLP-1R Clone C6, cAMP, geometric mean of replicates

Row | Compound | EC50 [1] | Emax [1] | EC50 [2, 3] | Emax [2, 4] | EC50 [2, 5] | EC50 ([2]; Assay 2 EC50 (nM), CHO GLP-1R Clone C6 (low receptor density), cAMP HTRF, geometric mean) | Assay 2 Emax (%) ([2]; CHO GLP-1R Clone C6 (low receptor density), arithmetic mean, relative to saturating GLP-1 (1 μM))
1 | O=C(O)c1ccc2nc(CN3CCC(c4cccc5c4O[C@@H](c4ccc(Cl)cc4F)O5)CC3)n(C[C@@H]3CCO3)c2c1 [Example 5, Ammonium 2-({4-[(2S)-2-(4-chloro-2-fluorophenyl)-1,3-benzodioxol-4-yl]piperidin-1-yl}methyl)-1-[(2S)-oxetan-2-ylmethyl]-1H-benzimidazole-6-carboxylate] | 1.3 nM | 89% | 23 nM | 97% | 20 nM | – | –
2 | C[C@@]1(c2ccc(Cl)cc2F)Oc2cccc(C3CCN(Cc4nc5ccc(C(=O)O)cc5n4C[C@@H]4CCO4)CC3)c2O1 [Example 6, Ammonium 2-({4-[(2R)-2-(4-chloro-2-fluorophenyl)-2-methyl-1,3-benzodioxol-4-yl]piperidin-1-yl}methyl)-1-[(2S)-oxetan-2-ylmethyl]-1H-benzimidazole-6-carboxylate] | 140 nM | 89% | – | 89% | 2400 nM | 2400 nM | –
3 | CCn1cncc1Cn1c(CN2CCC(c3cccc4c3O[C@](C)(c3ccc(Cl)cc3F)O4)CC2)nc2ccc(C(=O)O)cc21 (single isomer, unassigned) [Example 18, Ammonium 2-({4-[2-(4-chloro-2-fluorophenyl)-2-methyl-1,3-benzodioxol-4-yl]piperidin-1-yl}methyl)-1-[(I-ethyl-1H-imidazol-5-yl)methyl]-1H-benzimidazole-6-carboxylate] | 210 nM | – | 1000 nM | – | – | – | 87%
4 | COCCn1c(CN2CCC(c3cccc4c3OC(c3ccc(C#N)cc3F)O4)CC2)nc2ccc(C(=O)O)cc21 (stereo not drawn) [Example 27, 2-({4-[2-(4-cyano-2-fluorophenyl)-1,3-benzodioxol-4-yl]piperidin-1-yl}methyl)-1-(2-methoxyethyl)-1H-benzimidazole-6-carboxylic acid] | 61 nM | 98% | 1000 nM | 100% | – | – | –
5 | COCCn1c(CN2CCC(c3cccc4c3OC(C)(c3ccc(Cl)cc3F)O4)CC2)nc2ncc(C(=O)O)cc21 (stereo not drawn) [Example 3, 2-({4-[2-(4-Chloro-2-fluorophenyl)-2-methyl-1,3-benzodioxol-4-yl]piperidin-1-yl}methyl)-1-(2-methoxyethyl)-1H-imidazo[4,5-b]pyridine-6-Carboxylic Acid] | 1.3 nM | 94% | 45 nM | 120% | – | – | –
6 | CC(=O)N(C)CCn1c(CN2CCC(c3cccc4c3OC(C)(c3ccc(Cl)cc3F)O4)CC2)nc2ccc(C(=O)O)cc21 (stereo not drawn) [Example 43, 1-{2-[acetyl(methyl)amino]ethyl}-2-({4-[2-(4-chloro-2-fluorophenyl)-2-methyl-1,3-benzodioxol-4-yl]piperidin-1-yl}methyl)-1H-benzimidazole-6-carboxylic acid] | 3.5 nM | 88% | 65 nM | 86% | – | – | –
7 | CCn1cncc1Cn1c(CN2CCC(c3cccc4c3O[C@@](C)(c3ccc(Cl)cc3F)O4)CC2)nc2ccc(C(=O)O)cc21 (single isomer, unassigned) [Example 17, Ammonium 2-({4-[2-(4-chloro-2-fluorophenyl)-2-methyl-1,3-benzodioxol-4-yl]piperidin-1-yl}methyl)-1-[(I-ethyl-1H-imidazol-5-yl)methyl]-1H-benzimidazole-6-carboxylate] | 0.079 nM | – | 1.1 nM | – | – | – | –
8 | COCCn1c(CN2CCC(c3cccc4c3OC(C)(c3ccc(OC)cc3F)O4)CC2)nc2ccc(C(=O)O)cc21 (stereo not drawn) [Example 35, 2-({4-[2-(2-fluoro-4-methoxyphenyl)-2-methyl-1,3-benzodioxol-4-yl]piperidin-1-yl}methyl)-1-(2-methoxyethyl)-1H-benzimidazole-6-carboxylic acid] | 6.6 nM | 86% | 170 nM | 89% | – | – | –
9 | COCCn1c(CN2CCC(c3cccc4c3OC(C)(c3ccc(C(F)(F)F)cc3)O4)CC2)nc2ccc(C(=O)O)cc21 (stereo not drawn) [Example 40, 1-(2-methoxyethyl)-2-[(4-{2-methyl-2-[4-(trifluoromethyl)phenyl]-1,3-benzodioxol-4-yl}piperidin-1-yl)methyl]-1H-benzimidazole-6-carboxylic acid] | 14 nM | 88% | 130 nM | 73% | – | – | –

The next lines start with results.

Row | EC50 [1] | Emax [1] | EC50 [2, 3] | Emax [2, 4] | EC50 [2, 5] | EC50 ([2]; Assay 2 EC50 (nM), CHO GLP-1R Clone C6 (low receptor density), cAMP HTRF, geometric mean) | Compound | Assay 2 Emax (%) ([2]; CHO GLP-1R Clone C6 (low receptor density), arithmetic mean, relative to saturating GLP-1 (1 μM))
10 | 53 nM | 89% | 1700 nM | 92% | – | – | Cn1cnc(Cn2c(CN3CCC(c4cccc5c4OC(C)(c4ccc(Cl)cc4F)O5)CC3)nc3ccc(C(=O)O)cc32)c1 (stereo not drawn) [Example 77, 2-({4-[2-(4-chloro-2-fluorophenyl)-2-methyl-1,3-benzodioxol-4-yl]piperidin-1-yl}methyl)-1-[(1-methyl-1H-imidazol-4-yl)methyl]-1H-benzimidazole-6-carboxylic acid] | –
11 | 3.1 nM | 87% | 52 nM | 84% | – | – | CC1(c2ccc(Cl)cc2F)Oc2cccc(C3CCN(Cc4nc5ccc(C(=O)O)cc5n4CCn4cccn4)CC3)c2O1 (stereo not drawn) [Example 53, 2-({4-[2-(4-chloro-2-fluorophenyl)-2-methyl-1,3-benzodioxol-4-yl]piperidin-1-yl}methyl)-1-[2-(1H-pyrazol-1-yl)ethyl]-1H-benzimidazole-6-carboxylic acid] | –
12 | 12 nM | – | 360 nM | 87% | – | – | COCCn1c(CN2CCC(c3cccc4c3OC(C)(c3ccc(C#N)cn3)O4)CC2)nc2ccc(C(=O)O)cc21 (stereo not drawn) [Example 94, ammonium 2-({4-[2-(5-cyanopyridin-2-yl)-2-methyl-1,3-benzodioxol-4-yl]piperidin-1-yl}methyl)-1-(2-methoxyethyl)-1H-benzimidazole-6-carboxylate] | –
13 | 15 nM | 86% | 500 nM | 98% | – | – | Cn1ncnc1Cn1c(CN2CCC(c3cccc4c3OC(C)(c3ccc(Cl)cc3F)O4)CC2)nc2ccc(C(=O)O)cc21 (stereo not drawn) [Example 57, 2-({4-[2-(4-chloro-2-fluorophenyl)-2-methyl-1,3-benzodioxol-4-yl]piperidin-1-yl}methyl)-1-[(1-methyl-1H-1,2,4-triazol-5-yl)methyl]-1H-benzimidazole-6-carboxylic acid] | –
14 | 74 nM | 85% | 680 nM | 53% | – | – | CN(C)C(=O)CCn1c(CN2CCC(c3cccc4c3OC(C)(c3ccc(Cl)cc3F)O4)CC2)nc2ccc(C(=O)O)cc21 (stereo not drawn) [Example 59, 2-({4-[2-(4-chloro-2-fluorophenyl)-2-methyl-1,3-benzodioxol-4-yl]piperidin-1-yl}methyl)-1-[3-(dimethylamino)-3-oxopropyl]-1H-benzimidazole-6-carboxylic acid] | –
15 | 65 nM | 82% | 1000 nM | 71% | – | – | CC1(c2ccc(Cl)cc2F)Oc2cccc(C3CCN(Cc4nc5ccc(C(=O)O)cc5n4CCO)CC3)c2O1 (stereo not drawn) [Example 75, 2-({4-[2-(4-chloro-2-fluorophenyl)-2-methyl-1,3-benzodioxol-4-yl]piperidin-1-yl}methyl)-1-(2-hydroxyethyl)-1H-benzimidazole-6-carboxylic acid] | –
16 | 14 nM | 76% | 310 nM | 80% | – | – | CC1(c2ccc(Cl)cc2F)Oc2cccc(C3CCN(Cc4nc5ccc(C(=O)O)cc5n4CC4(O)CCC4)CC3)c2O1 (stereo not drawn) [Example 72, 2-({4-[2-(4-chloro-2-fluorophenyl)-2-methyl-1,3-benzodioxol-4-yl]piperidin-1-yl}methyl)-1-[(1-hydroxycyclobutyl)methyl]-1H-benzimidazole-6-carboxylic acid] | –
17 | 2.8 nM | 100% | 97 nM | 100% | – | – | COCCn1cnnc1Cn1c(CN2CCC(c3cccc4c3OC(C)(c3ccc(Cl)cc3F)O4)CC2)nc2ccc(C(=O)O)cc21 (stereo not drawn) [Example 70, 2-({4-[2-(4-chloro-2-fluorophenyl)-2-methyl-1,3-benzodioxol-4-yl]piperidin-1-yl}methyl)-1-{[4-(2-methoxyethyl)-4H-1,2,4-triazol-3-yl]methyl}-1H-benzimidazole-6-carboxylic acid] | –
18 | 14 nM | 81% | 280 nM | 73% | – | – | CC1(c2ccc(Cl)cc2F)Oc2cccc(C3CCN(Cc4nc5ccc(C(=O)O)cc5n4CCN4CCCC4=O)CC3)c2O1 (stereo not drawn) [Example 48, 2-({4-[2-(4-chloro-2-fluorophenyl)-2-methyl-1,3-benzodioxol-4-yl]piperidin-1-yl}methyl)-1-[2-(2-oxopyrrolidin-1-yl)ethyl]-1H-benzimidazole-6-carboxylic acid] | –
19 | 2.2 nM | 94% | 82 nM | 95% | – | – | Cc1nccn1CCn1c(CN2CCC(c3cccc4c3OC(C)(c3ccc(Cl)cc3F)O4)CC2)nc2ccc(C(=O)O)cc21 (stereo not drawn) [Example 62, 2-({4-[2-(4-chloro-2-fluorophenyl)-2-methyl-1,3-benzodioxol-4-yl]piperidin-1-yl}methyl)-1-[2-(2-methyl-1H-imidazol-1-yl)ethyl]-1H-benzimidazole-6-carboxylic acid] | –
20 | 17 nM | 86% | 360 nM | 91% | – | – | COCCn1c(CN2CCC(c3cccc4c3OC(C)(c3ccccc3C)O4)CC2)nc2ccc(C(=O)O)cc21 (stereo not drawn) [Example 88, 1-(2-methoxyethyl)-2-({4-[2-methyl-2-(2-methylphenyl)-1,3-benzodioxol-4-yl]piperidin-1-yl}methyl)-1H-benzimidazole-6-carboxylic acid] | –
